# Assay results reported in patent US8679765B2, “Methods and compositions for diagnosis and treatment of malignant and non-malignant gammopathies” (Ludwig Institute for Cancer Research Ltd., priority 2009, dated 2014).
# Assays:
# [1] = target: hyperphosphorylation of Paratarg; test: Inhibition experiments: LCLs cultured with kinase inhibitors, IEF and immunodetection with anti-STOML2; format: cell-based, human; conditions: IEF analysis; for effect on hyperphosphorylation of paratarg: LCLs of healthy donors or patients
# Method: LCLs derived from healthy donors or patients were cultured in the presence of the kinase inhibitors at the indicated concentrations. Lysates were analysed by IEF and immunodetected with anti-STOML2. A shown in this figure, hyperphosphorylation is inhibited by staurosporine, ellagic acid and wortmannin. […] Using BIM_I and Rottlerin, PKC isoform delta or zeta could be identified as responsible for hyperphosphorylation. • a) Same as b), but with other concentrations of the inhibitors.
# LCLs were established by infection of PBMCs with EBV as described by Neumann et al (Blood 2005; 106:3105-13).
# Stably transfected cell lines were cultured in the presence of inhibitory compounds as indicated. After 5 d cells were removed and analysed by IEF and immunodetection.
# In MGUS/MM patients and their relatives hyperphosphorylated paratarg is expressed constitutively, while hyperphosphorylation of paratarg is temporary in all healthy persons and cell lines analysed. This was seen by culturing LCLs and cell lines in the presence of kinase or phosphatase inhibitors. The identification of Ser17 as the differential phosphorylation site led to the prediction of a […] (PKC) responsible for hyperphosphorylation. Culturing of LCLs and cell lines in the presence of suitable inhibitors (staurosporine, Wortmannin, Bisindolylmaleimid I) at concentrations as indicated below and followed by IEF analysis identifies the PKCzeta isoform as the active kinase (summarized in FIG. 16). This was verified by using highly specific PKCzeta pseudosubstrate as inhibitor (FIG. 16d). […] (FIG. 18).
# [2] = tested on: paraproteins of serum pool #1 (MGUS/MM patients' sera); test: Serum profiling on high density protein arrays (paraprotein screening of hEx1 human fetal brain macroarray); format: binding; design: key: Paraprotein-binding quality/strength are ++, + and ±.; Paraprotein-binding quality/strength are ++, + and ±.; Paraprotein-binding quality/strength are ++, + and ±; conditions: serum pool #1 (n=114), each serum diluted 1:10^8
# Method: Screening analyses were performed on hEx1 high-density protein expression cDNA libraries, created in Hans Lehrach's laboratory at the Max Planck Institute for Molecular Genetics in Berlin (Germany) and obtained from the Reference Center of the German Human Genome Project (RZPD) (Bussow et al, 1998). These high-density filter membranes display proteins that were expressed from a modified pQE protein expression vector (Qiagen). This vector featured a hexahistidine tag, a T5 promoter and two lac operator sequences, which allowed repression during the growth phase by overexpression of the Lac repressor protein, and subsequent induction of protein expression with isopropyl-beta-D-thiogalactopyranoside (IPTG).
# High density protein arrays of the protein expression set of the hEx1 library were obtained from the German Resource Center for Genome Research (RZPD) and provided by Dr. Mahlknecht from our department. They consist of 37,200 independent clones derived from a human fetal brain cDNA expression library and were used for autoantibody detection. For serum profiling, the filters were blocked in 10% (w/v) non-fat, dry milk powder in TBST (TBS, 0.1% (v/v) Tween 20) at 4° C. overnight, washed twice in TBST, and incubated for 1 h with serum pool #1 at a dilution of 1:10^8 for each serum. Following three 30-min TBST washes and subsequent incubation with the secondary antibody (goat anti-human IgG biotinylated, Dianova, diluted 1:2.500) and Strep-PDX (1:15.000) in 2% (w/v) Milk/TBST, the filters were washed three times for 30 min in TBST. This was followed by detection using Pharmacia ECL system. Positive signals were localized according to the manufacturer's protocol. Corresponding clones were obtained from RZPD.
# In this study we screened a human high-density protein array containing 37,200 independent recombinant proteins derived from a human fetal brain expression library with sera obtained from patients with monoclonal gammopathy of undetermined significance (MGUS) and multiple myeloma (MM).
# The signal pattern obtained from the screening with the paraprotein pools at a dilution of 1:10^8 were compared with the patterns obtained from screening with the control sera from clinically healthy donors and to background incubations. […] 5′- and 3′-tag sequencing of these clones was performed, and their sequences were used for BLAST searches against public databases at NCBI.
# Using serum pool #1 (paraprotein type: 15 IgA, 88 IgG, 11 oligoclonal, n=114) we identified 14 putative paraprotein targets on the human protein filter array (FIG. 1, Tab. 1). […] Sequence searches and comparisons using the in-frame sequences identified five known proteins and one unknown gene product derived from chromosome 8.
Molecule,effect on hyperphosphorylation of paratarg [1],Signal-quality (paraprotein-binding quality/strength) [2],also measured
"CN(C)CCCn1cc(C2=C(c3c[nH]c4ccccc34)C(=O)NC2=O)c2ccccc21 [BIM_I, Bisindolylmaleimid I]",–,–,"kinase identified by inhibition of paratarg hyperphosphorylation ([1]; LCLs, BIM_I at 6 μM): clearly identified PKCzeta as the kinase responsible"
O=c1oc2c(O)c(O)cc3c(=O)oc4c(O)c(O)cc1c4c23 [ellagic acid],inhibited,–,–
CN[C@@H]1C[C@H]2O[C@@](C)([C@@H]1OC)n1c3ccccc3c3c4c(c5c6ccccc6n2c5c31)C(=O)NC4 [staurosporine],inhibited,–,–
"MPMGp800J11592: RZPD clone, NM_001294.1 (protein, UniProt O96005 2-669, looked up) Putative lipid scramblase …: AAAQEADGARSAVVAAGGGSSGQVTSNGSIGRDPPAETQPQNPPAQPAPNAWQVIKGVLFRIFIIWAISSWFRRGPAPQDQAGPGGAPRVASRNLFPKDTLMNLHVYISEHEHFTDFNATSALFWEQHDLVYGDWTSGENSDGCYEHFAELDIPQSVQQNGSIYIHVYFTKSGFHPDPRQKALYRRLATVHMSRMINKYKRRRFQKTKNLLTGETEADPEMIKRAEDYGPVEVISHWHPNITINIVDDHTPWVKGSVPPPLDQYVKFDAVSGDYYPIIYFNDYWNLQKDYYPINESLASLPLRVSFCPLSLWRWQLYAAQSTKSPWNFLGDELYEQSDEEQDSVKVALLETNPYLLALTIIVSIVHSVFEFLAFKNDIQFWNSRQSLEGLSVRSVFFGVFQSFVVLLYILDNETNFVVQVSVFIGVLIDLWKITKVMDVRLDREHRVAGIFPRLSFKDKSTYIESSTKVYDDMAFRYLSWILFPLLGCYAVYSLLYLEHKGWYSWVLSMLYGFLLTFGFITMTPQLFINYKLKSVAHLPWRMLTYKALNTFIDDLFAFVIKMPVMYRIGCLRDDVVFFIYLYQRWIYRVDPTRVNEFGMSGEDPTAAAPVAEVPTAAGALTPTPAPTTTTATREEASTSLPTKPTQGASSASEPQEAPPKPAEDKKKD",–,±,–
"MPMGp800B22602: RZPD clone, NM_006762.1 (protein) MDPRLSTVRQTCCCFNVRIATTALAIYHVIMSVLLFIEHSVEVAHGKASCKLSQMGYLRIADLISSFLLITMLFIISLSLLIGVVKNREKYLLPFLSLQIMDYLLCLLTLLGSYIELPAYLKLASRSRASSSKFPLMTLQLLDFCLSILTLCSSYMEVPTYLNFKSMNHMNYLPSQEDMPHNQFIKMMIIFSIAFITVLIFKVYMFKCVWRCYRLIKCMNSVEEKRNSKMLQKVVLPSYEEALSLPSKTPEGGPAPPPYSEV",–,++,–
